Measured values published in patent US5869494A, “Uses for barbituric acid analogs” (priority 1997, dated 1999).
Entries after “also recorded” stand apart in the source; their conditions may differ. Where two headings read alike, the source gives them in different places.

Tests used:
[1] = In vivo toxicity, single escalating oral dose; conditions: BALB/c mice
Method: A single escalating dose of the test drag is a procedure where a dose is administered to a group of mice (in this case n=3). If toxicity is not elicited, the next higher dose is given to a fresh group of mice and so on until toxicity is observed.

[2] = test system: DU-145 human prostate tumors; assay: Human DU-145 prostate tumors transplanted into athymic mice, oral treatment; type: in vivo, athymic BALB/c nude-nu mice; conditions: 400 mg/kg oral
Excerpt: Male athymic BALB/c nude-nu mice (6-8 weeks old, 18-22 g each) were purchased from Harlan Sprague-Dawley, Inc. (Indianapolis, Ind.) and maintained in a germ-free environment. The mice had free access to sterile food and water. Human prostate DU-145 cells (1×10^7) were transplanted subcutaneously into athymic mice. Solid tumors appearing after 30 days were cut into small pieces (2-2 mm) and transplanted into native mice. […] The treatment schedule consisted of a single dose on alternate days. The control group of animals (3 mice) received vehicle only. […] At this point, the treatment was terminated and animals were kept under observation for the regrowth of prostate tumors.
formula % TGI = 100(1Vt /Vc), where Vt and Vc are the […]

[3] = test system: BT-20 human breast cancer cells; assay: Cytotoxicity for breast cancer cell line BT-20 (MTT assay); type: cell-based; conditions: read-out: Percent cell kill; for cytotoxicity at 50 µg/mL: 50 μg/ml; for cytotoxicity at 100 µg/mL: 100 μg/ml; for cytotoxicity at 150 µg/mL: 150 μg/ml
Method: (§1) In the following examples, tumor cells were treated with varying concentrations of compounds C1, C2, C4 or C5 dissolved in absolute ethanol. To limit any non-specific toxicity, the final concentration of ethanol was not allowed to exceed 0.5%. Stock concentrations of 5 mg/ml or 20 mg/ml were used. Viability of cells was determined in some studies by the trypan blue dye exclusion method. In other studies, cell viability/proliferation activity was determined by MTT assay by using a kit obtained from Promega, (Promega Corp., Madison, Wis. 53711). For this assay, a 100 μl cell suspension containing 5-10^3 monolayer cells or 1×10^5 suspension cells was placed in the wells of a 96-well microtiter plate. After overnight incubation, cells were treated with different concentrations of the test compound. Control wells received vehicle only. After 24, 48, 72 or 96 h of incubation, 50 μl of MTT dye solution was added. After 4 h of incubation at 37° C., 100 μl of solubilization/stop solution was added. After another h of incubation, cells were mixed using a multi-channel pipet and the absorption of the dye color was recorded at 570 nm using a plate reading absorption spectrophotometer.
(§2) After the incubation period, viability of the cells was determined by MTT assay (Promega Corp., Madison, Wis. 53711).

[4] = test system: L1210 mouse leukemia cells; assay: Cytotoxicity for leukemia cells (L1210); type: cell-based; conditions: for cytotoxicity at 50 µg/mL / cytotoxicity at 110 µg/mL / cytotoxicity at 150 µg/mL: Mus musculus; for cytotoxicity at 50 µg/mL: 50 μg/ml; for cytotoxicity at 110 µg/mL: 110 μg/ml; for cytotoxicity at 150 µg/mL: 150 μg/ml
Method: as §1
The viability of the cells was […]

[5] = test system: MCF-7 human breast cancer cells; assay: Cytotoxicity for breast cancer cell line MCF-7 (MTT assay); type: cell-based; conditions: read-out: Percent cell kill; for cytotoxicity at 50 µg/mL: 50 μg/ml; for cytotoxicity at 100 µg/mL: 100 μg/ml; for cytotoxicity at 150 µg/mL: 150 μg/ml
Method: as §1, §2

[6] = test system: PC-3 human prostate cancer cells; assay: Cytotoxicity for prostate cancer cell line PC-3 (MTT assay); type: cell-based; conditions: read-out: Percent cell kill; for cytotoxicity at 50 µg/mL: 50 μg/ml; for cytotoxicity at 100 µg/mL: 100 μg/ml; for cytotoxicity at 150 µg/mL: 150 μg/ml
Method: as §1, §2

[7] = test system: DU-145 human prostate cancer cells; assay: Cytotoxicity for prostate cancer cell line DU-145 (MTT assay); type: cell-based; conditions: read-out: Percent cell kill; for cytotoxicity at 50 µg/mL: 50 μg/ml; for cytotoxicity at 100 µg/mL: 100 μg/ml; for cytotoxicity at 150 µg/mL: 150 μg/ml
Method: as §1, §2

[8] = test system: Daudi human lymphoma cells; assay: Cytotoxicity for lymphoma cells (Daudi); type: cell-based; conditions: for cytotoxicity at 50 µg/mL / cytotoxicity at 100 µg/mL / cytotoxicity at 150 µg/mL: Homo sapiens, Daudi; for cytotoxicity at 50 µg/mL: 50 μg/ml; for cytotoxicity at 100 µg/mL: 100 μg/ml; for cytotoxicity at 150 µg/mL: 150 μg/ml, read-out: % Cytotoxicity
Method: as §1
The viability of the cells was
Compounds C4 and C5 were also tested for toxicity against human lymphoma Daudi cells.

[9] = 48 h, all concentrations tested

With `CCCCN1C(=O)CC(=O)N(CCCC)C1=S` [Compound C1, 4,6(1H, 5H)-pyrimidinedione, 1,3-dibutyldihydro-2-thioxo] the lethal single dose [1] was 2000 mg/kg, the MTD ([1]; mouse, in vivo, read-out: single dose easily tolerated) was no less than 1200 mg/kg and the regrowth of tumors ([2]; 5 months posttreatment) was “no signs of tumor regrowth; also recorded: regrowth of treated tumors did not occur for a period of 5 months”. The palpable prostate tumors ([2]; after 18 doses) was “palpable prostate tumors in the treated group could not be detected; also recorded: palpable tumors were not detectable in treated animals”, the “% TGI (percent tumor growth inhibition)” value ([2]; alternate days, 18 doses) was 99.0% and the “side effects such as weight loss, diarrhea, lethargy or discomfort” value ([2]; alternate days, 18 doses) was “not observed; also recorded: No observable side effects”. The “Tumor Area” value ([2]; alternate days, 18 doses, control 19.90 ± 7.1) was 0.0 cm^2, the “Tumor Volume” value ([2]; alternate days, 18 doses, control 20.64 ± 7.01) was 0.0 cm^3 and the “Animal Weight” value ([2]; alternate days, 18 doses, control 28.5) was 29.3 g. It also gave a cytotoxicity at 50 µg/mL ([3]; BT-20, 24 h, 24 hr) of 43.3 ± 4.1%, a cytotoxicity at 100 µg/mL ([3]; BT-20, 24 h, 24 hr) of 62 ± 7.9% and a cytotoxicity at 150 µg/mL ([3]; BT-20, 24 h, 24 hr) of 94 ± 4.2%. It also gave a cytotoxicity at 50 µg/mL ([3]; BT-20, 48 h, 48 hr) of 65.5 ± 2.4%, a cytotoxicity at 100 µg/mL ([3]; BT-20, 48 h, 48 hr) of 91.3 ± 2.5% and a cytotoxicity at 150 µg/mL ([3]; BT-20, 48 h, 48 hr) of 96.5 ± 2.4%. The cytotoxicity at 50 µg/mL ([3]; BT-20, 72 h, 72 hr) was 73.3 ± 2.9%, the cytotoxicity at 100 µg/mL ([3]; BT-20, 72 h, 72 hr) was 86.8 ± 3.6% and the cytotoxicity at 150 µg/mL ([3]; BT-20, 72 h, 72 hr) was 86 ± 3.6%. It also gave a cytotoxicity at 50 µg/mL ([3]; BT-20, 96 h, 96 hr) of 100%, a cytotoxicity at 100 µg/mL ([3]; BT-20, 96 h, 96 hr) of 100% and a cytotoxicity at 150 µg/mL ([3]; BT-20, 96 h, 96 hr) of 100%. For the same compound, the killing of cells [4, 9] was “over 99%”, the cytotoxicity at 50 µg/mL ([4]; L1210, 24 h, 24 hr) was 81.2 ± 4.3% and the cytotoxicity at 110 µg/mL ([4]; L1210, 24 h, 24 hr) was 93.5 ± 3.1%. For the same compound, the cytotoxicity at 150 µg/mL ([4]; L1210, 24 h, 24 hr) was 89.2 ± 3.2%, the cytotoxicity at 50 µg/mL ([4]; L1210, 48 h, 48 hr) was 99% and the cytotoxicity at 110 µg/mL ([4]; L1210, 48 h, 48 hr, read-out: % Cytotoxicity) was 99.9%. The cytotoxicity at 150 µg/mL ([4]; L1210, 48 h, 48 hr) was 99.9%, the cytotoxicity at 50 µg/mL ([5]; MCF7, 24 h, 24 hr) was 39.5 ± 10.5% and the cytotoxicity at 100 µg/mL ([5]; MCF7, 24 h, 24 hr) was 57.3 ± 1.5%. It also gave a cytotoxicity at 150 µg/mL ([5]; MCF7, 24 h, 24 hr) of 87.8 ± 8.8%, a cytotoxicity at 50 µg/mL ([5]; MCF7, 48 h, 48 hr) of 67.5 ± 5.3% and a cytotoxicity at 100 µg/mL ([5]; MCF7, 48 h, 48 hr) of 92.8 ± 4.9%. It also gave a cytotoxicity at 150 µg/mL ([5]; MCF7, 48 h, 48 hr) of 92.3 ± 5.3%, a cytotoxicity at 50 µg/mL ([5]; MCF7, 72 h, 72 hr) of 85.8 ± 3.8% and a cytotoxicity at 100 µg/mL ([5]; MCF7, 72 h, 72 hr) of 88 ± 5.4%. The cytotoxicity at 150 µg/mL ([5]; MCF7, 72 h, 72 hr) was 84.5 ± 5.1%, the cytotoxicity at 50 µg/mL ([5]; MCF7, 96 h, 96 hr) was 97.8 ± 1.7% and the cytotoxicity at 100 µg/mL ([5]; MCF7, 96 h, 96 hr) was 97.8 ± 1.7%. It also gave a cytotoxicity at 150 µg/mL ([5]; MCF7, 96 h, 96 hr) of 96.5 ± 2.5%, a cytotoxicity at 50 µg/mL ([6]; 24 h, 24 hr) of 61.7 ± 10% and a cytotoxicity at 100 µg/mL ([6]; 24 h, 24 hr) of 88.7 ± 5.5%. The cytotoxicity at 150 µg/mL ([6]; 24 h, 24 hr) was 90.5 ± 7.1%, the cytotoxicity at 50 µg/mL ([6]; 48 h, 48 hr) was 91 ± 3.6% and the cytotoxicity at 100 µg/mL ([6]; 48 h, 48 hr) was 92.7 ± 1.2%. For the same compound, the cytotoxicity at 150 µg/mL ([6]; 48 h, 48 hr) was 94.9 ± 5.3%, the cytotoxicity at 50 µg/mL ([6]; 72 h, 72 hr) was 100% and the cytotoxicity at 100 µg/mL ([6]; 72 h, 72 hr) was 100%. The cytotoxicity at 150 µg/mL ([6]; 72 h, 72 hr) was 100%, the cytotoxicity at 50 µg/mL ([6]; 96 h, 96 hr) was 100% and the cytotoxicity at 100 µg/mL ([6]; 96 h, 96 hr) was 100%. It also gave a cytotoxicity at 150 µg/mL ([6]; 96 h, 96 hr) greater than 96%, a cytotoxicity at 50 µg/mL ([7]; DU-145, 24 h, 24 hr) of 0% and a cytotoxicity at 100 µg/mL ([7]; DU-145, 24 h, 24 hr) of 27.5 ± 6.4%. It also gave a cytotoxicity at 150 µg/mL ([7]; DU-145, 24 h, 24 hr) of 43 ± 2.9%, a cytotoxicity at 50 µg/mL ([7]; DU-145, 48 h, 48 hr) of 0% and a cytotoxicity at 100 µg/mL ([7]; DU-145, 48 h, 48 hr) of 52.2 ± 3.4%. It also gave a cytotoxicity at 150 µg/mL ([7]; DU-145, 48 h, 48 hr) of 71 ± 7.3%, a cytotoxicity at 50 µg/mL ([7]; DU-145, 72 h, 72 hr) of 23.5 ± 4.5% and a cytotoxicity at 100 µg/mL ([7]; DU-145, 72 h, 72 hr) of 58.7 ± 2.1%. It also gave a cytotoxicity at 150 µg/mL ([7]; DU-145, 72 h, 72 hr) of 78.7 ± 3.4%, a cytotoxicity at 50 µg/mL ([7]; DU-145, 96 h, 96 hr) of 26.2 ± 5.5% and a cytotoxicity at 100 µg/mL ([7]; DU-145, 96 h, 96 hr) of 64 ± 4.2%. The cytotoxicity at 150 µg/mL ([7]; DU-145, 96 h, 96 hr) was 82.5 ± 3.7%, the killing of cells [8, 9] was “over 99%” and the cytotoxicity at 50 µg/mL ([8]; 24 h) was 91.3 ± 4.6%. The cytotoxicity at 100 µg/mL ([8]; 24 h) was 93.3 ± 4.9%, the cytotoxicity at 150 µg/mL ([8]; 24 h, 24 hr) was 94 ± 4.9% and the cytotoxicity at 50 µg/mL ([8]; 48 h) was 99.9%. It also gave a cytotoxicity at 100 µg/mL ([8]; 48 h) of 99.9% and a cytotoxicity at 150 µg/mL ([8]; 48 h, 48 hr) of 99.9%.
